Measurements reported in US6753171B2, “Site-specific cell perforation technique” (Center for Advanced Science and Technology Incubation, Ltd., priority 1998, dated 2004).

What was measured:
PC12 cells [1] = experiment: Cell survival rate after injection treatment (LY maintaining rate); assay type: cell-based
Procedure: The survival rate of cells to which microinjection treatment by a physical shear force was given, and that for photosensitizing microinjection treated cells were compared.
LY was injected into cells by microinjection. In dead cells in which the cell membrane had collapsed, LY rapidly diffuses, and staining is lost (Cell, 14, 741-759 (1978)). Therefore, LY maintaining rate of injection treated cells was used as an indicator of cell survival rate, and the survival rate after 3 to 6 days following injection treatment was compared.

nerve cell line PC12 = experiment: Measurement of membrane resistance and membrane potential following light exposure (patch clamp); assay type: cell-based; settings: for change in cell membrane resistance/membrane potential following light exposure: 363 nm argon ion laser
Procedure: Since there is a need to monitor cellular level micro membrane damages, including the recovering process within seconds to a few minutes, the intermembrane potential of the cell membrane, or the ionic current passing through the cell membrane was measured using the patch clamp method, which is an electrophysiology experiment technique.
The photosensitizer BAT was dispersed in HEPES (25 mM,pH7.4) buffer.
Cells were incubated at room temperature within an electrophysiology experimental culture medium.
2H2O, 2.4 mM; MgSO4. 7H2O, 1.3 mM; glucose 10 mM, in which the pH was adjusted to […] by finally adding NaOH. To prevent any influence due to evaporation, the electrophysiology experiment culture medium was changed every 40 min at the latest by a pipette.
BAT was added to a final concentration of 49 μM. Exposed light quantity was in three stages, being 0.47 J/cm^2, 0.94 J/cm^2, and 1.57 J/cm^2.
The solution within the patch electrodes had the composition of KCl 132 mM, NaCl, 8 mM, MgCl2, 2 mM, HEPES 30 mM, Na2ATP 4 mM, GTP 0.3 mM, and EGTA 0.5 mM, in which the pH was adjusted to 7.3 by finally adding NaOH.
As the excitation power source, 50 mW, 363 nm argon ion laser standardly equipped within a confocal laser scanning microscope (CLSM) MRC-1000 UV (BIO-RAD laboratories) was used. 1/16th (¼^th to the direction of the X axis and Y axis, 117 μm×170 μm) of the full screen of the microscope is scanned with the above-described laser beams. Adjustments were done so that the whole image of the patched target cell came into this area. 50 mW laser beam is a 100% output. According to the scanning speed, the exposed duration was selected from 1/16, ¼, 1/32 sec. The light reduction by the lens was also utilized. When the zoom function was used, the light is scanned on a concentrated area smaller than the normal area, and therefore, the light quantity per unit area increases in proportion to the square of the zoom magnification. Since the excitation light has to pass through the plastic of the collagen-coated dish before reaching the cells, there is a necessity to consider light reduction.
Also, in the excitation light exposure, a TTL signal coupled with an electrophysiological recording is suitably transmitted to the excitation light source, to synchronize the exposure and electrical measurement.
At the start of the electrophysiological experiment, the cell membrane potential was maintained between −80 to −60 mV. The resistance of the patch electrode was 3˜4 MΩ, and the above described solution was filled into electrodes, and used.
As for the amplifier for cell membrane potential measurement, Axopatch 1-D (Axon Instruments) was used. The membrane resistance was calculated by the change in membrane potential when a 1 Hz rectangular hyperpolarizing current was passed through for 350 mili sec. […] The measured potential/current value was analyzed by Axoscope ver. 1.1 software (Axon Instruments).
Membrane resistance reflects membrane permeation inhibiting capacity, and membrane potential reflects the active ion transport capacity due to the functions of various intermembrane ion transportation systems and ion permeation inhibiting capacity.
A microinjector was connected to a micro glass pipette held by a micromanipulator, and BAT dispersed solution (BAT concentration was 2 mM, aqueous solvent) was filled into this micro glass pipette. The tip of this glass pipette was connected to a patch electrode and setup within 200 μm proximity of the cells in which the membrane potential/membrane resistance was to be measured. BAT dispersed solution was released by compressing the micro glass pipette to attach BAT onto the cell membrane of target cells.

[2] = Solubility of BAT in aqueous solution; assay type: physicochemical; settings: within acidic aqueous solutions (bivalent positive charge)
Excerpt: The thiophene oligomer having amino-methyl residue at the terminal, has a high solubility compared with other derivatives of the same type because of this amino-methyl residue. Solubility changes with the dissociation state of this amino-methyl residue. […] In aqueous solutions near a pH region suitable for the body (around 7.4), it has a feature of having both positively-charged monovalent BAT maintaining a high solubility, and non-charged BAT that agglutinates easily into a colloid state. Under this pH condition, by perfusing cells within a BAT-dispersed solution, this molecule can easily attach onto the cell surface. The hydrophilicity of BAT molecule is a novel feature that is not seen in either modified thiophene oligomers starting with α-terthienyl, or in other molecules designed as conductive high molecular monomers.

PC12 cells [3] = experiment: Microinjection treatment using site-specific membrane disruption: success rate of Lucifer Yellow injection; assay type: cell-based; settings: BAT 100 μM in injection solution, capillary approach speed 7 μm s^-1, n=30
Procedure: To determine the success or failure of microinjection treatment, Lucifer Yellow CH(LY), a water-soluble fluorescent dye, was added to the injection solution. After injection treatment, if a yellow fluorescence of LY origin was observed within the cell by a fluorescent microscope, then, the injection treatment was judged to have been successful. The variation of the success rate of cell injection was evaluated by the presence or absence of the photosensitizer BAT within the injection solution, and the presence or absence of a BAT excitation light exposure.
Normally, to make microinjection successful, a glass capillary having an opening with a diameter of a few hundred nanometers should be contacted with cells at high speed, to instantly penetrate/perforate the cell membrane or the nucleus membrane physically. […] The micromanipulator was attached to a fluorescence microscope (OLYMPUS OPTICAL, IX70 fluorescence microscope spec). Light of a 100 W […], which is the epi-illumination fluorescence light source equipped in the microscope, was treated by transmitting through an ultraviolet ray excitation filter set (OLYMPUS OPTICAL, U-MWU mirror unit), and the resulting ultraviolet light was used as the excitation source of the photosensitizer. […]

## NCc1ccc(-c2ccc(-c3ccc(CN)s3)s2)s1 [BAT, 5′5″-bis(aminomethyl)-2,2′:5′,2″-terthiophene]
PC12 cells [1]; BAT+LY without UV, 3rd day following treatment
  cell survival rate (LY retention rate): 30%
PC12 cells [1]; BAT+LY+UV photosensitizing injection, three to six days following injection treatment
  cell survival rate (LY retention rate): 90%
Nerve cell line PC12; BAT 49 μM, light quantity 0.47 J/cm^2 (A)
  change in cell membrane resistance/membrane potential following light exposure: a big change was not seen
Nerve cell line PC12; BAT 49 μM, light quantity 0.94 J/cm^2 (B)
  change in cell membrane resistance/membrane potential following light exposure: a decrease in cell membrane resistance/depolarization of the membrane potential occurred
Nerve cell line PC12; BAT 49 μM, light quantity 1.57 J/cm^2 (C)
  change in cell membrane resistance/membrane potential following light exposure: both disappeared
Nerve cell line PC12; BAT 49 μM, light quantity 1.57 J/cm^2 (C), after a few second lag period
  time to disappearance of cell membrane resistance/membrane potential: 8 s
Nerve cell line PC12; BAT 2 mM dispersed solution sprayed onto target cells by micro glass pipette (Example 4)
  cell membrane potential after laser exposure: depolarization of the cell membrane potential was observed
Nerve cell line PC12; only the axon exposed
  change in membrane resistance when only the axon of the cell was exposed to laser beams: a similar change in membrane resistance was observed
[2]
  solubility: dissolves easily
PC12 cells [3]; 2 min ultraviolet exposure
  success rate of the injection: 80%
PC12 cells [3]; no light exposure
  success rate of the injection: 13%
